Measurements published in publication PMC10477861, “Efficient Mining of Anticancer Peptides from Gut Metagenome” (Advanced Science, 2023).

Assays:
Conditions in all cases: 25 µM pACP, 24 h, maintenance medium 1% FBS, ratio of viability to vehicle (PBS), at least three technical repetitions
HT29 = assay: MTT primary screening of anticancer activity, HT29; assay type: cell-based, Human
Method in brief: (§1)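 Each candidate peptide is tested […] at 25 µM for 24 h on subconfluent (60%) cells kept in low-serum (1% FBS) medium. Viability is quantified with an MTT kit.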

Caco2 = assay: MTT primary screening of anticancer activity, Caco2; assay type: cell-based, Human
Method in brief: as §1

HCT116 = assay: MTT primary screening of anticancer activity, HCT116; assay type: cell-based, Human
Method in brief: as §1

CT26 = assay: MTT primary screening of anticancer activity, CT26; assay type: cell-based, Murine
Method in brief: as §1

MDA-MB-231 = assay: MTT primary screening of anticancer activity, MDA-MB-231; assay type: cell-based
Method in brief: as §1

MDA-MB-436 = assay: MTT primary screening of anticancer activity, MDA-MB-436; assay type: cell-based
Method in brief: as §1

MDA-MB-453 = assay: MTT primary screening of anticancer activity, MDA-MB-453; assay type: cell-based
Method in brief: as §1

MDA-MB-468 = assay: MTT primary screening of anticancer activity, MDA-MB-468; assay type: cell-based
Method in brief: as §1

SK-BR-3 = assay: MTT primary screening of anticancer activity, SK-BR-3; assay type: cell-based
Method in brief: as §1

BT474 = assay: MTT primary screening of anticancer activity, BT474; assay type: cell-based
Method in brief: as §1

T47D = assay: MTT primary screening of anticancer activity, T47D; assay type: cell-based
Method in brief: as §1

EFM192A = assay: MTT primary screening of anticancer activity, EFM192A; assay type: cell-based
Method in brief: as §1

B16 = assay: MTT primary screening of anticancer activity, B16; assay type: cell-based, Mouse
Method in brief: as §1

MCF7 = assay: MTT primary screening of anticancer activity, MCF7; assay type: cell-based
Method in brief: as §1

Hela = assay: MTT primary screening of anticancer activity, Hela; assay type: cell-based, Human
Method in brief: as §1

LCC = assay: MTT primary screening of anticancer activity, LCC; assay type: cell-based
Method in brief: as §1

Sequence	Survival rate of cancer cells in primary screening (HT29)	Survival rate of cancer cells in primary screening (Caco2)	Survival rate of cancer cells in primary screening (HCT116)	Survival rate of cancer cells in primary screening (CT26)	Survival rate of cancer cells in primary screening (MDA-MB-231)	Survival rate of cancer cells in primary screening (MDA-MB-436)	Survival rate of cancer cells in primary screening (MDA-MB-453)	Survival rate of cancer cells in primary screening (MDA-MB-468)	Survival rate of cancer cells in primary screening (SK-BR-3)	Survival rate of cancer cells in primary screening (BT474)	Survival rate of cancer cells in primary screening (T47D)	Survival rate of cancer cells in primary screening (EFM192A)	Survival rate of cancer cells in primary screening (B16)	Survival rate of cancer cells in primary screening (MCF7)	Survival rate of cancer cells in primary screening (Hela)	Survival rate of cancer cells in primary screening (LCC)
NQRKRTACDRRRSICDERIAAGICKRNFRCKKYLKINGTIGLSIRLGKLG [pACP1381]	0.69	0.69	1.00	1.00	1.00	1.00	1.00	1.00	1.00	1.00	1.00	1.00	0.76	1.00	1.00	1.00
LARPDAAPKKQLRRPLRFRQPEWRRISKIHHIPRRFRRA [pACP1156]	1.00	1.00	1.00	1.00	1.00	0.74	1.00	1.00	1.00	1.00	0.74	1.00	0.78	1.00	1.00	1.00
KFCSSFFKSLQFPKAETLVGFKGKALKISNVLIKKSPIIK [pACP860]	1.00	1.00	1.00	1.00	1.00	1.00	1.00	0.60	1.00	0.70	0.75	1.00	0.77	0.78	0.78	1.00
RLIVRMKTLYEKAAQMEIKIVENRFTRHEKKNKINRIKRKREK [pACP1722]	0.63	0.70	1.00	0.35	1.00	0.27	0.11	1.00	0.63	0.14	0.29	1.00	0.56	0.31	0.13	1.00
